# Source: US20130225412A1, “SILICON NANOCARRIER FOR DELIVERY OF DRUG, PESTICIDES AND HERBICIDES , AND FOR WASTE WATER TREATMENT” (priority 2012, published 2013)
# Assay: Release from loaded diatomaceous earth measured by Nano Drop spectrophotometer
# Assay type: physicochemical
# Conditions: for start of release after loading / time of peak release: release pattern measured by NanoDrop
# Experimental: According to embodiments herein, the diatom structure and drug loading capacity can vary for different kind of medicines. For example for anticancer Fluorouracil (5-FU or f5U) a master mix of 50 mg/ml was prepared. 0.8 ml of this master mix was added to 200 ml pure ethanol. 0.6 g diatomaceous earth (diatom cell wall) was added to this mixture and was left to be stirred for 3 hours with 200 rpm. Finally after filtration, diatom cell wall was washed once with methanol. 12 hours later at room temperature diatom cell wall were dried and loaded with Fluorouracil (5-FU or f5U).
# Final concentration of 200 mg/ml of Gallic acid in Methanol/Diatomaceous Earth was prepared. To ensure that none of the Gallic acid was left on the outer surface of nano silicon, it washed by Methanol. After his, its release in water by interval of 2 hours was measured at the wavelength of 270 nm.
# Evaluation of Benomyl fungicide release by nano Drop Spectrophotometer: Material and methods were identically same as Gallic Acid. After measuring all ODs, release calibration curve was drawn. […] With respect to FIG. 5, it is seen that the Benomyl releases after 12 hours of loading and gets to its peak release after 40 hours and the release decreases sharply. This is a kind of controlled release.
# 5-flouracil release pattern by nano Drop Spectrophotometer was evaluated. […] With respect to FIG. 6, it can be seen that the drug 5-Florouracil releases after 8 hours from the loading starts and 16 hours after gets peak release and then fall of gradually. This is a kind of controlled release.
# Progesterone release pattern by nano Drop Spectrophotometer was evaluated.
start of release after loading [h],time of peak release [h],"optical density (ODs) measures (release in water, interval of 2 hours, wavelength 270 nm, loaded in Diatomaceous Earth)",Structure (SMILES),"release in water (loaded in Diatomaceous Earth, washed by Methanol)"
,,zero,O=C(O)c1cc(O)c(O)c(O)c1 [Gallic acid],none of the Gallic acid has been released in water
4,28,,CC(=O)[C@H]1CC[C@H]2[C@@H]3CCC4=CC(=O)CC[C@]4(C)[C@H]3CC[C@]12C [Progesterone],
8,16,,O=c1[nH]cc(F)c(=O)[nH]1 [fluorouracil],

Structure (SMILES),start of release after loading [h],time of peak release [h],"optical density (ODs) measures (release in water, interval of 2 hours, wavelength 270 nm, loaded in Diatomaceous Earth)","release in water (loaded in Diatomaceous Earth, washed by Methanol)"
CCCCNC(=O)n1c(NC(=O)OC)nc2ccccc21 [Benomyl],12,40,,
